Assays:
[1] = test system: mCherry reporter gene in HEK293T cells; assay: Chemically-disruptable Gal4(DBD)-NS3a(H1)/ANR-VPR transcriptional regulation; type: cell-based; settings: 1 μM drug, 24 hours
Protocol: Cells were subsequently transfected with 1 μg of the Gal4 reporter plasmid (UAS-mCherry™/CMV-Gal4-NS3a(H1)-P2A-ANR-Myc-BFP-VPR-NLS) in OptiMem™. […] Supernatant was subsequently removed and the cells were re-suspended in 400 μL DPBS and analyzed on a FACS LSRII (BD Biosciences).
For Gal4/NS3a-CDP mediated transcriptional activation FACS experiments, 10,000 single cell events were collected for each of the samples run. […] The gathered FACS data were analyzed using FlowJo™ (v.10.1).

NS3a inactive = assay: ANR-GST pulldown with immobilized biotinylated NS3a; type: binding, hepatitis C virus; settings: 10 μM danoprevir, 5 μM ANR-GST
Protocol: Pierce high-capacity streptavidin beads (Thermo-Fisher #P120359) were prepared by washing three times with Buffer PDA (TBS+0.05% tween+0.5 mg/mL BSA). For each condition and each replicate, beads were washed and incubated separately. The wash was performed by adding 200 μL Buffer PDA to 30 μL of a 50/50 bead slurry, inverting to mix, and spinning down (2500×g for 2 min). The supernatant was removed by pipetting, and the wash was repeated two more times to end with a 50/50 slurry of beads in wash buffer.
Purified biotinylated NS3a was prepared at a 50× final concentration and 10 μL were added to a 490 μL 50/50 slurry of streptavidin beads and Buffer PD for final NS3a concentration of 125 nM. Beads were incubated and rotated at 4° C. After one hour, beads were harvested and washed three times as described previously, ending in a 50/50 bead/buffer slurry. ANR was added to all samples at a final concentration of 5 μM. For the danoprevir treated samples, danoprevir was added to a final concentration of 10 μM. Buffer PD was added to a final volume of 500 μL, and the beads were incubated and rotated at 4° C. After 1 hour, beads were pelleted and washed three times in Buffer FDB (TBS buffer+0.05% Tween) with 5 minute incubations between washes on a rotator at 4° C. To obtain final bound protein, beads were pelleted and supernatant was aspirated, resulting in a final volume of beads of 20 μL. […]

GFP reporter = assay: Combined CXCR4 and GFP induction with scRNAs, NS3a-VPR; type: cell-based; settings: read-out: EC50 (GFP expression)
CXCR4 [2] = assay: Danoprevir/grazoprevir titrations to linearize CXCR4 or CD95 expression; type: cell-based, human; settings: increasing proportion of grazoprevir added to danoprevir titration
Source text: Data were fit to four-parameter log dose-response curves (fitting EC50, upper and lower baselines, and Hill coefficient) in Graphpad Prism 5.

GFP, CD95 and CXCR4 = assay: 3-gene experiment (GFP, CD95, CXCR4) by RT-qPCR; type: cell-based; settings: 10 μM danoprevir, 1 μM grazoprevir, 1 μM asunaprevir
Source text: Cells were harvested on day 5 as described above for other samples to be analyzed to qPCR.

HeLa cells = assay: Widefield microscopy for signaling phenotype analysis; type: cell-based; settings: EGFP-DNCR2-TIAM, BFP-GNCR1-LARG and NS3a-CAAX in HeLa cells
Protocol: Widefield images were collected in an environmental chamber with humidity control, 37° C., and 5% CO2 on a Leica DMi8 automated fluorescence microscope. Cells were plated on glass-bottomed 96-well plates (Cellvis). Plates were treated with 10 μg/mL bovine fibronectin (Sigma Aldrich) for 1 hour and washed once with PBS.
The cell line used was TRex™-HeLa (ThermoFisher Scientific), into which Lifeact-mCherry™ was stably integrated into the doxycycline-regulated Flp-In site by co-transfection of the pCDNA5-FRT/TO-Lifeact-mCherry™ vector with the Flp recombinase plasmid pOG44 (ThermoFisher Scientific) according to manufacturer's protocols. Lifeact-mCherry™ was induced by addition of 1 μg/mL doxycycline to culture media. For expression of signaling effector proteins, 1 day prior to imaging, 5×10^6 cells were transiently transfected with 10 μg DNA in a 100 μL electroporation tip using a Neon transfection system (ThermoFisher Scientific) according to manufacturer's recommendations for HeLa cells. 5×10^3 cells were plated in each well of the 96-well plate used for imaging. Cells recovered in complete DMEM with 10% FBS overnight. […] For Rac/Rho regulation, the construct PB-NS3a-CAAX-IRES-EGFP-DNCR2-TIAM-P2a-BFP-GNCR1-LARG was used, with images collected for the mCherry™ (Lifeact) and EGFP (DNCR2-TIAM) channels. […]

CXCR4 [3] = assay: dCas9 transcription control, immunofluorescence FACS; type: cell-based, human; settings: CXCR4 and CD95
NS3a active = target: T1, NS3a active (Hepatitis C virus genotype 1b, UniProt Q9WMX2, A1176V/E1056D/L1047A/L1120M/Q1112P/R1052K/V1062L/V1196I); assay: Fluorescence polarization competition assay with FAM-ANR; type: binding
T1 construct: Avi-His6-NS3a; made in house; host or cells: E. coli BL21 (DE3)
Protocol: (§1) Fluorescence polarization competition assays were used to determine the ability of danoprevir to displace ANR. A 75 nM solution of NS3a in FP-Buffer was incubated with 50 nM FAM-ANR in a black 96-well plate for 1 hour in the dark. 3-fold serial dilutions of danoprevir were prepared in FP-Buffer such that, when added to the NS3a/FAM-ANR solution, the highest concentration of danoprevir tested was 10 μM. Plates were incubated for 1 hour in the dark. Fluorescence polarization was measured at 22° C. on a Perkin Elmer EnVision™ fluorometer (excitation, 495 nm; emission 520 nm). Each measurement was carried out in triplicate. Anisotropy values were obtained and a nonlinear regression model was used to fit curves with GraphPad Prism.

NS3a inactive (S139A) = target: T2, NS3a inactive (S139A) (Hepatitis C virus genotype 1b, UniProt Q9WMX2, A1176V/E1056D/L1047A/L1120M/Q1112P/R1052K/S1165A/V1062L/V1196I); assay: as above; type: binding; settings: 75 nM NS3a, read-out: apparent IC50
T2 construct: Avi-His6-NS3a; the text calls the FP protein non-biotinylated) (N); made in house; host or cells: E. coli BL21 (DE3)
Protocol: as §1

**Q.** What does the source list for `CC(C)(C)OC(=O)N[C@H]1CCCCC/C=C\[C@@H]2C[C@@]2(C(=O)NS(=O)(=O)C2CC2)NC(=O)[C@@H]2C[C@@H](OC(=O)N3Cc4cccc(F)c4C3)CN2C1=O` [danoprevir]?
**A.** mCherry expression after drug treatment [1]: decreased mCherry™ expression to background levels; pull down of ANR-GST by immobilized NS3a inactive (NS3a inactive): inhibits the ability of immobilized NS3a inactive to pull down ANR-GST; EC50 (GFP reporter): 0.79 nM; linear output range of CXCR4 expression (CXCR4 [2]): 3 orders of magnitude; transcriptional output state in 3-gene system (GFP, CD95 and CXCR4): CD95 expression under control of DNCR2; cell shape change (HeLa cells): caused cell expansion; effect on gene expression in the absence of the guide RNA (CXCR4 [3]): no effect; displacement of ANR from NS3a (NS3a active): potently and dose-dependently displace ANR from NS3a; IC50 (NS3a active; NS3a active, 75 nM NS3a, FAM-ANR, read-out: apparent IC50): < 75 nM; IC50 (NS3a inactive (S139A)): < 75 nM
